Results as given in the NIST ThermoML archive (doi:10.1021/je050367p).
Several values for one entry are separate records, joined by “and”; a condition that tells them apart may be missing. Equal values may be shown once.

What was measured:
[1] = xn = mol fraction of the nth substance listed; conditions: Liquid; for viscosity: Capillary tube (Ostwald / Ubbelohde) method
[2] = refractive index (Na D-line) (dimensionless); xn = mol fraction of the nth substance listed; conditions: 100.8 kPa, Liquid, Standard Abbe refractometry
[3] = Liquid; for viscosity: Capillary tube (Ostwald / Ubbelohde) method
[4] = refractive index (Na D-line) (dimensionless); conditions: 101.33 kPa, Liquid, Standard Abbe refractometry

CCO [ethanol] + CC(C)OC(C)C
[1], 100.5 kPa, x2 = 0
Conditions | mass density [kg/m3] | viscosity [mPa·s]
288.15 K | 793.74 | 1.309
298.15 K | 785.17 | 1.084
308.15 K | 776.49 | 0.905

[2], x2 = 0
Conditions | refractive index
288.15 K | 1.36342
298.15 K | 1.35924
308.15 K | 1.35502

CCO [ethanol]
[3]
Conditions | mass density, 288.15 K [kg/m3] | mass density, 298.15 K [kg/m3] | mass density, 308.15 K [kg/m3] | viscosity, 288.15 K [mPa·s] | viscosity, 298.15 K [mPa·s] | viscosity, 308.15 K [mPa·s]
100.5 kPa | 793.74 | 785.17 | 776.49 | 1.309 | 1.084 | 0.905
100.8 kPa | 793.74 | 785.17 | 776.49 | 1.309 | 1.084 | 0.905

[4]
Conditions | refractive index
288.15 K | 1.36342
298.15 K | 1.35924
308.15 K | 1.35502

CCO [ethanol] + CC(C)CC(C)(C)C
[1], 100.8 kPa, x1 = 1
Conditions | mass density [kg/m3] | viscosity [mPa·s]
288.15 K | 793.74 | 1.309
298.15 K | 785.17 | 1.084
308.15 K | 776.49 | 0.905

[2], x1 = 1
Conditions | refractive index
288.15 K | 1.36342
298.15 K | 1.35924
308.15 K | 1.35502

CC(C)CC(C)(C)C [2,2,4-trimethylpentane]
[3], 100.8 kPa
Conditions | mass density | viscosity [mPa·s]
288.15 K | 695.95 kg/m3 | 0.537
298.15 K | 687.74 kg/m3 | 0.48
308.15 K | 679.43 kg/m3 and 679.41 kg/m3 | 0.432

[4]
Conditions | refractive index
288.15 K | 1.39404
298.15 K | 1.389
308.15 K | 1.38395

CC(C)CC(C)(C)C [2,2,4-trimethylpentane] + CC(C)OC(C)C
[1], 100.8 kPa, x2 = 0
Conditions | mass density [kg/m3] | viscosity [mPa·s]
288.15 K | 695.95 | 0.537
298.15 K | 687.74 | 0.48
308.15 K | 679.43 | 0.432

[2], x2 = 0
Conditions | refractive index
288.15 K | 1.39404
298.15 K | 1.389
308.15 K | 1.38395

CC(C)OC(C)C [diisopropyl ether]
[3]
Conditions | mass density, 288.15 K [kg/m3] | mass density, 298.15 K [kg/m3] | mass density, 308.15 K [kg/m3] | viscosity, 288.15 K [mPa·s] | viscosity, 298.15 K [mPa·s] | viscosity, 308.15 K [mPa·s]
100.5 kPa | 729.09 | 718.7 | 708.12 | 0.348 | 0.313 | 0.283
100.8 kPa | 729.09 | 718.7 | 708.12 | 0.348 | 0.313 | 0.283

[4]
Conditions | refractive index
288.15 K | 1.37093
298.15 K | 1.36524
308.15 K | 1.35944
